Here are results for 22 molecules from US20230192700A1, “PYRAZOLOPYRAZINES ACTING ON CANCERS VIA INHIBITION OF CDK12” (Bayer Aktiengesellschaft, priority 2020, published 2023).

Where two headings read alike, the source gives them in different places.

Assay [1] relates to CAL-120 human breast adenocarcinoma cells. Description: Proliferation assay CAL-120 (crystal violet). The class given is cell-based. Particulars: CAL-120 cells, 4 days, median, read-out: Prolif-CAL-120— IC50 - [mol/l] (median). As for the experimental part:
4. Proliferation assay: MDA-MB-231, CAL-120
Human tumour cells were originally obtained from the American Type Culture Collection (ATCC), or from the Deutsche Sammlung von Mikroorganismen and Zellkulturen (DSMZ, German Collection of Microorganisms and Cell Cultures). Cultivated tumour cells (CAL-120, human breast adenocarcinoma cells, DSMZ ACC-459; MDA-M B-231, human breast cancer cells, ATCC HTB-26) were plated at a density of 4,000 cells/well in a 96-well multititer plate in 200 microL of their respective growth medium supplemented 10% fetal calf serum. After 24 hours, the cells of one plate (zero-point plate) were stained with crystal violet (see below), while the medium of the other plates was supplemented with the test substances in various concentrations (0 micromol/L, as well as in the range of 0.01-10 micromol/L; the final concentration of the solvent dimethyl sulfoxide was adjusted to 0.1%) using a Tecan HP D300 Digital Dispenser. The cells were incubated for 4 days in the presence of test substances. Cell proliferation was determined by staining the cells with crystal violet: the cells were fixed by adding 20 microL/measuring point of an 11% glutaric aldehyde solution for 15 minutes at room temperature. After three washing cycles of the fixed cells with water, the plates were dried at room temperature. The cells were stained by adding 100 microL/measuring point of a 0.1% crystal violet solution (pH 3.0). After three washing cycles of the stained cells with water, the plates were dried at room temperature. The dye was dissolved by adding 100 microL/measuring point of a 10% acetic acid solution. The extinction was determined by photometry at a wavelength of 595 nm. The change of cell number, in percent, was calculated by normalization of the measured values to the extinction values of the zero-point plate(=0%) and the extinction of the untreated (0 μM) cells(=100%). The IC50 values (inhibitory concentration at 50% of maximal effect) were determined by means of a 4 parameter fit.

Assay [2] deals with T1, CYCLIN K (Homo sapiens, UniProt O75909).
T1 construct: endogenous in cells; host or cells: CAL-120 human breast cancer cells (DSMZ ACC 459)
T1 sequence (O75909 whole entry): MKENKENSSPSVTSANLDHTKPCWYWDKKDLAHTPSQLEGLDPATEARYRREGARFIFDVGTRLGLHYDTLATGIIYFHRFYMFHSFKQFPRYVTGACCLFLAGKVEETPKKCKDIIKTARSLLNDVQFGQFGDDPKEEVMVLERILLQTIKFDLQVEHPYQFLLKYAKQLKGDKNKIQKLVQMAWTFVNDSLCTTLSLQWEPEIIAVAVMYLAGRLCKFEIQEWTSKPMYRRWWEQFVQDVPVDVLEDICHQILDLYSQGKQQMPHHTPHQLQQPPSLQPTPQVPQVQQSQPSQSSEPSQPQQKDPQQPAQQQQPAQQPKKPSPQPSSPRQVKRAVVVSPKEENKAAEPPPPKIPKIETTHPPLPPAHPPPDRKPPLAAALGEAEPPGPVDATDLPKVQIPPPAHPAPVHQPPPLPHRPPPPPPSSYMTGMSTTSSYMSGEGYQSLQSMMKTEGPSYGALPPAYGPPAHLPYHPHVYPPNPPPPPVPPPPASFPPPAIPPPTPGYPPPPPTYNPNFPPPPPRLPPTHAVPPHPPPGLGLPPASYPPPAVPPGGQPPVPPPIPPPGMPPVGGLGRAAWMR
T1 sequence (Q9NYV4 whole entry partner): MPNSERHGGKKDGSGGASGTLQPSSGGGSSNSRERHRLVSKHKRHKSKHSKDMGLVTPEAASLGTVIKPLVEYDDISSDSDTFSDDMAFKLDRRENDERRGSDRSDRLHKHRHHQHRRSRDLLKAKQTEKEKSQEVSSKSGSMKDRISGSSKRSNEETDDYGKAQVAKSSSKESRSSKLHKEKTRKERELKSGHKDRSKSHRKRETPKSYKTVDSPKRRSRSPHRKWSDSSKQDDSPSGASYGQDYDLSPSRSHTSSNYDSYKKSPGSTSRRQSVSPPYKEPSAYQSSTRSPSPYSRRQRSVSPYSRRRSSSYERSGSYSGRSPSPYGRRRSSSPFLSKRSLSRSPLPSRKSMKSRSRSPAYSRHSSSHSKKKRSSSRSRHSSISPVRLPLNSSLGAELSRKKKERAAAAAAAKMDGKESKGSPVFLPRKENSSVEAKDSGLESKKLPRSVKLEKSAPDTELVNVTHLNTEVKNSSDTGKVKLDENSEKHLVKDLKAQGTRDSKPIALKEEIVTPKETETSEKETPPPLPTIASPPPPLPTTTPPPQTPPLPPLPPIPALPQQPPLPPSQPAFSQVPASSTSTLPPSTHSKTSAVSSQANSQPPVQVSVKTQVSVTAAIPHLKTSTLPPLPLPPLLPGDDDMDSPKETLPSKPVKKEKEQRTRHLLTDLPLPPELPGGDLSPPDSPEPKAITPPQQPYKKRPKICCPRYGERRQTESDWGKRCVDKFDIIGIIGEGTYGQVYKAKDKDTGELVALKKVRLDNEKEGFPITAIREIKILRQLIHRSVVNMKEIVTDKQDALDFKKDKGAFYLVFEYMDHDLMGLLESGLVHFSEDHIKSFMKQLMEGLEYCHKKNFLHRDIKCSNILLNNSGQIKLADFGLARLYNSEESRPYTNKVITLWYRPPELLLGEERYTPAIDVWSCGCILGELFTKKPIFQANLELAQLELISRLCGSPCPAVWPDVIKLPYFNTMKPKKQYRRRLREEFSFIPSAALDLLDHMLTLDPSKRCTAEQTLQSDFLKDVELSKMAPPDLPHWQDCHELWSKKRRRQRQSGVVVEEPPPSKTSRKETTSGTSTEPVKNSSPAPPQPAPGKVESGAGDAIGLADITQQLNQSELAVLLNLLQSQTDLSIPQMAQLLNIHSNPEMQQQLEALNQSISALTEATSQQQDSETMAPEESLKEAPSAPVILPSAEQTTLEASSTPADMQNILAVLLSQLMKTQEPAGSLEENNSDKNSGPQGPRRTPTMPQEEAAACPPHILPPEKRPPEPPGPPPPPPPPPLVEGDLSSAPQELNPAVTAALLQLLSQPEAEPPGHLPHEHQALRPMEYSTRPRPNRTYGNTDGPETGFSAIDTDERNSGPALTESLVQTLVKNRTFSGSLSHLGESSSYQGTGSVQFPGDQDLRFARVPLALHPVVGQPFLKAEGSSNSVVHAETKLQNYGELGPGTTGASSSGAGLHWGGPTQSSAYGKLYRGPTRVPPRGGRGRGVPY
Description: CYCLIN K nuclear protein level: immunofluorescence/high content analysis in CAL-120 cells. Particulars: 24 h, nuclear CCNK staining intensity, median, read-out: CYCLIN K degradation IF, DC50- [mol/l] (median). The class given is cell-based. The procedure:
7. CYCLIN K Nuclear Protein Level: Immunofluorescence/High Content Analysis
In the context of the present invention, the term “DC50 Cyclin K” refers to the DC50 values obtained according to the assay described in this section (7) herein below, i.e. the DC50 values for the degradation of Cyclin K.
CAL-120 human breast cancer cells (DSMZ ACC 459) are seeded in 1536-well microtiter plates (800 cells per well) containing 50 nanoL of compounds in Dose-Response. Control wells received DMSO or Reference Example 1. Plates are then incubated for 24 h at 37° C. in an humidified incubator and fixed with 4% PFA for 10 min. Then immunofluorescence (IF) against CYCLIN K (ThermoFisher Scientific CCNK Antibody # PA5-85020, rabbit, 1:200 dilution) is performed using standard IF protocols. Cells are then stained with Hoechst 33342 (Life Technologies, H-1399, 0.1 microg/mL) and imaged on an automated confocal microscopy system (e.g. Perkin Elmer Opera Phenix). Nuclear and cytoplasmic intensity as well as the nuclear/cytoplasmic intensity ratio is determined by automated image analysis using custom generated scripts (MetaXpress). Data is then transferred to Genedata Screener software, normalized to DMSO and control and DC50 values (degrading concentration to achieve 50% reduction of nuclear CCNK staining intensity relative to controls) are reported.

Take `CC(C)(O)C1CC(n2nc(NCc3nc4ccccc4[nH]3)c3ncc(C4CC4)nc32)C1` (mixture of isomers) [Example 48, 2-[cis/trans-3-(3-{[(1H-benzimidazol-2-yl)methyl]amino}-6-cyclopropyl-1H-pyrazolo[3,4-b]pyrazin-1-yl)cyclobutyl]propan-2-ol]: in assay [1] (Homo sapiens, CAL-120, 96 h), the IC50 came out at 0.0425 µM. Further, in assay [2], the DC50 turned out to be 0.0113 µM. For `c1ccc2[nH]c(CNc3nn(C4CCOC4)c4nc(C5CC5)cnc34)nc2c1` (racemic) [Example 10, (±)-N-[(1H-benzimidazol-2-yl)methyl]-6-cyclopropyl-1-[oxolan-3-yl]-1H-pyrazolo[3,4-b]pyrazin-3-amine] the same measures were 0.0657 µM and 0.159 µM.

With `CC1CC(n2nc(NCc3nc4ccccc4[nH]3)c3ncc(C4CC4)nc32)CCN1C` (racemic) [Example 41, (±)-cis/trans-N-[(1H-benzimidazol-2-yl)methyl]-6-cyclopropyl-1-(1,2-dimethylpiperidin-4-yl)-1H-pyrazolo[3,4-b]pyrazin-3-amine], the IC50 in assay [1] (Homo sapiens, CAL-120, 96 h) was 0.0204 µM. In assay [2], the DC50 was 0.0023 µM.

Consider `CC1COCCC1n1nc(NCc2nc3ccccc3[nH]2)c2ncc(C3CC3)nc21` (racemic) [Example 42, (±)-cis/trans-N-[(1H-benzimidazol-2-yl)methyl]-6-cyclopropyl-1-(3-methyloxan-4-yl)-1H-pyrazolo[3,4-b]pyrazin-3-amine], for which the IC50 in assay [1] (Homo sapiens, CAL-120, 96 h) was determined as 0.0845 µM. Also, the DC50 in assay [2] stood at 0.0172 µM.

For the molecule `CC1CC(n2nc(NCc3nc4ccccc4[nH]3)c3ncc(C4CC4)nc32)CCO1` (racemic) [Example 44, (±)-cis/trans-N-[(1H-benzimidazol-2-yl)methyl]-6-cyclopropyl-1-(2-methyloxan-4-yl)-1H-pyrazolo[3,4-b]pyrazin-3-amine], the IC50 in assay [1] (Homo sapiens, CAL-120, 96 h) turned out to be 0.0235 µM. Moreover, in assay [2], the DC50 turned out to be 0.0135 µM. For `CN1CCCC(n2nc(NCc3nc4ccccc4[nH]3)c3ncc(C4CC4)nc32)CC1` (single isomer, unassigned) [Example 37, (+) or (−)-N-[(1H-benzimidazol-2-yl)methyl]-6-cyclopropyl-1-[(4R*)-1-methylazepan-4-yl]-1H-pyrazolo[3,4-b]pyrazin-3-amine], in assay [1], the IC50 amounted to 0.00414 µM. The DC50 in assay [2] turned out to be 0.00172 µM. Regarding `COCCC(C)n1nc(NCc2nc3ccccc3[nH]2)c2ncc(C3CC3)nc21` (single isomer, unassigned; (+)) [Example 59, (+)-N-[(1H-benzimidazol-2-yl)methyl]-6-cyclopropyl-1-[4-methoxybutan-2-yl]-1H-pyrazolo[3,4-b]pyrazin-3-amine], the IC50 in assay [1] is 0.44 µM. Besides, the DC50 in assay [2] is 0.0386 µM. For `COCCC(C)n1nc(NCc2nc3ccccc3[nH]2)c2ncc(C3CC3)nc21` (single isomer, unassigned; (-)) [Example 58, (−)-N-[(1H-benzimidazol-2-yl)methyl]-6-cyclopropyl-1-[4-methoxybutan-2-yl]-1H-pyrazolo[3,4-b]pyrazin-3-amine] the same measures were 0.156 µM and 0.0156 µM. Consider `CN1CCC(n2nc(NCc3nc4ccccc4[nH]3)c3ncc(C4CC4)nc32)CC1` [Example 1, N-[(1H-benzimidazol-2-yl)methyl]-6-cyclopropyl-1-(1-methylpiperidin-4-yl)-1H-pyrazolo[3,4-b]pyrazin-3-amine], for which the IC50 in assay [1] (Homo sapiens, CAL-120, 96 h) is 0.0328 µM. Further, in assay [2], the DC50 is 0.0071 µM. For `COc1cccc2[nH]c(CNc3nn(C4CCN(C)CC4)c4nc(C5CC5)cnc34)nc12` [Example 2, 6-cyclopropyl-N-[(4-methoxy-1H-benzimidazol-2-yl)methyl]-1-(1-methylpiperidin-4-yl)-1H-pyrazolo[3,4-b]pyrazin-3-amine] the same measures were 0.011 µM and 0.000704 µM. For `CN1CCC(n2nc(NCc3nc4c(F)cccc4[nH]3)c3ncc(C4CC4)nc32)CC1` [Example 3, 6-cyclopropyl-N-[(4-fluoro-1H-benzimidazol-2-yl)methyl]-1-(1-methylpiperidin-4-yl)-1H-pyrazolo[3,4-b]pyrazin-3-amine] the same measures were 0.0033 µM and 0.00115 µM. For `CN1CCC(n2nc(NCc3nc4cc(F)ccc4[nH]3)c3ncc(C4CC4)nc32)CC1` [Example 4, 6-cyclopropyl-N-[(5-fluoro-1H-benzimidazol-2-yl)methyl]-1-(1-methylpiperidin-4-yl)-1H-pyrazolo[3,4-b]pyrazin-3-amine] the same measures were 0.0163 µM and 0.000914 µM. With `Cc1ccc2[nH]c(CNc3nn(C4CCN(C)CC4)c4nc(C5CC5)cnc34)nc2c1` [Example 6, 6-cyclopropyl-N-[(5-methyl-1H-benzimidazol-2-yl)methyl]-1-(1-methylpiperidin-4-yl)-1H-pyrazolo[3,4-b]pyrazin-3-amine], the DC50 in assay [2] was 0.000263 µM.

Consider `CN1CCC(n2nc(NCc3nc4c(C(F)(F)F)cccc4[nH]3)c3ncc(C4CC4)nc32)CC1` [Example 7, 6-cyclopropyl-1-(1-methylpiperidin-4-yl)-N-{[4-(trifluoromethyl)-1H-benzimidazol-2-yl]methyl}-1H-pyrazolo[3,4-b]pyrazin-3-amine], for which the IC50 in assay [1] (Homo sapiens, CAL-120, 96 h) amounted to 0.0105 µM. In assay [2], the DC50 was 0.00262 µM. Turning to `Cc1cccc2[nH]c(CNc3nn(C4CCN(C)CC4)c4nc(C5CC5)cnc34)nc12` [Example 8, 6-cyclopropyl-N-[(4-methyl-1H-benzimidazol-2-yl)methyl]-1-(1-methylpiperidin-4-yl)-1H-pyrazolo[3,4-b]pyrazin-3-amine], in assay [1] (Homo sapiens, CAL-120, 96 h), the IC50 was 0.0142 µM. For the same molecule, in assay [2], the DC50 worked out at 0.00622 µM.

In the case of `O=CO.c1ccc(-n2nc(NCc3nc4ccccc4[nH]3)c3ncc(C4CC4)nc32)cc1` [Example 13, formic acid—N-[(1H-benzimidazol-2-yl)methyl]-6-cyclopropyl-1-phenyl-1H-pyrazolo[3,4-b]pyrazin-3-amine (1/1)], the DC50 in assay [2] turned out to be 0.00311 µM. Same read-out and setting: with `O[C@H]1CC[C@@H](n2nc(NCc3nc4ccccc4[nH]3)c3ncc(C4CC4)nc32)CC1` [Example 51, cis-4-(3-{[(1H-benzimidazol-2-yl)methyl]amino}-6-cyclopropyl-1H-pyrazolo[3,4-b]pyrazin-1-yl)cyclohexan-1-ol] the figure was 0.00446 µM; with `CC1(C)CC(n2nc(NCc3nc4ccccc4[nH]3)c3ncc(C4CC4)nc32)CC(C)(C)O1` [Example 52, N-[(1H-benzimidazol-2-yl)methyl]-6-cyclopropyl-1-(2,2,6,6-tetramethyloxan-4-yl)-1H-pyrazolo[3,4-b]pyrazin-3-amine], 0.0926 µM; with `c1ccc2[nH]c(CNc3nn(C4CC5(COC5)C4)c4nc(C5CC5)cnc34)nc2c1` [Example 54, N-[(1H-benzimidazol-2-yl)methyl]-6-cyclopropyl-1-(2-oxaspiro[3.3]heptan-6-yl)-1H-pyrazolo[3,4-b]pyrazin-3-amine], 0.00331 µM. The same measure, in the same setting: the value for `c1ccc2[nH]c(CNc3nn(C4COC4)c4nc(C5CC5)cnc34)nc2c1` [Example 55, N-[(1H-benzimidazol-2-yl)methyl]-6-cyclopropyl-1-(oxetan-3-yl)-1H-pyrazolo[3,4-b]pyrazin-3-amine] was 0.0125 µM; that for `O[C@H]1CC[C@H](n2nc(NCc3nc4cc(F)ccc4[nH]3)c3ncc(C4CC4)nc32)CC1` [Example 56, trans-4-(6-cyclopropyl-3-{[(5-fluoro-1H-benzimidazol-2-yl)methyl]amino}-1H-pyrazolo[3,4-b]pyrazin-1-yl)cyclohexan-1-ol] was 0.00128 µM.

With `COCCCn1nc(NCc2nc3ccccc3[nH]2)c2ncc(C3CC3)nc21` [Example 61, N-[(1H-benzimidazol-2-yl)methyl]-6-cyclopropyl-1-(3-methoxypropyl)-1H-pyrazolo[3,4-b]pyrazin-3-amine], in assay [1] (Homo sapiens, CAL-120, 96 h), the IC50 amounted to 0.0606 µM.
